Measured values: BindingDB's records for doi:10.1124/mol.62.4.947 (National Cancer Institute-Bethesda, 2002)

Target: Transient receptor potential cation channel subfamily V member 1 (Rattus norvegicus, UniProt O35433)
Sequence (O35433 whole entry): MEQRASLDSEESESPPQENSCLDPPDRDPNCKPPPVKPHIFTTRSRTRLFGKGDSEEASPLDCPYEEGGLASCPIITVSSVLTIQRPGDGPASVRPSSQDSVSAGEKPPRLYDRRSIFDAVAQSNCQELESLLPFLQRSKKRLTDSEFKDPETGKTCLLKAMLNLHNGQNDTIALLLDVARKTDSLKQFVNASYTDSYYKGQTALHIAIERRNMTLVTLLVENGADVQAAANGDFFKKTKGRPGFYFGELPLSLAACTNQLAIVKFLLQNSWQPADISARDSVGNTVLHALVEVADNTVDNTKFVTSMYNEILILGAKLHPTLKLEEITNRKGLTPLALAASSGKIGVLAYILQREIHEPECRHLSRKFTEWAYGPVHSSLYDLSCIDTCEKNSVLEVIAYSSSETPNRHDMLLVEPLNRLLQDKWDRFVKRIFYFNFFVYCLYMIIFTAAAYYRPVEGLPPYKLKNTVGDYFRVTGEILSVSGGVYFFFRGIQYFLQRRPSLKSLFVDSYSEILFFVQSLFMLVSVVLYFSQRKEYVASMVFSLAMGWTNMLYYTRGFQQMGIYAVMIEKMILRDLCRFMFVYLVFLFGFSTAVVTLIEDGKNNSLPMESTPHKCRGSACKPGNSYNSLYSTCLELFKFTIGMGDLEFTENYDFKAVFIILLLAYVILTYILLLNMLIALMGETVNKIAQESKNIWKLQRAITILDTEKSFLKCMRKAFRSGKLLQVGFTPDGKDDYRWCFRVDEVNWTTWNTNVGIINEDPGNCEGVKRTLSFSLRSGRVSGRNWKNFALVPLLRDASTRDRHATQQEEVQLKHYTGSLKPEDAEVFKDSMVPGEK

CC(C)(C)c1ccc(CNC(=S)NCc2ccc(NS(C)(=O)=O)c(F)c2)cc1 [JYL1421]
Ki: 9.2 nM
